Assay [1] deals with T1, recombinant human Axl kinase (catalytic domain, amino acids 473-894) (Homo sapiens, UniProt P30530).
T1 construct: catalytic domain, amino acids 473-894; purchased Invitrogen Corporation, Carlsbad, Calif
T1 sequence (P30530 473-894): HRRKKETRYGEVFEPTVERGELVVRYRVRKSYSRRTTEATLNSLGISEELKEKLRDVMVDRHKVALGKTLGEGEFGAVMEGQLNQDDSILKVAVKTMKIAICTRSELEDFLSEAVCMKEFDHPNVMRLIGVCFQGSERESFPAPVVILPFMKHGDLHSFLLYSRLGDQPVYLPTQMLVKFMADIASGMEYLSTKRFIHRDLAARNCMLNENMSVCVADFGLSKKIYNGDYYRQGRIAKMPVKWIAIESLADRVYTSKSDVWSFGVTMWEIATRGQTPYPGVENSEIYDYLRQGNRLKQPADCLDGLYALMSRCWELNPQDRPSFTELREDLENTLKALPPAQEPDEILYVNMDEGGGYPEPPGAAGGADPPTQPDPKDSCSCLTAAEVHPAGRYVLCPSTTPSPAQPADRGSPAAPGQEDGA
Nature of the assay: Axl kinase activity assay (TR-FRET, fluorescein poly-GT substrate). It is filed as biochemical. The settings on record: 20 μM ATP, 93 ng/ml Axl kinase, 60 min; read-out: IC50 (Axl kinase activity). The method, then:
Test compounds were diluted to desired concentrations in kinase reaction buffer (50 mM HEPES pH 7.5, 10 mM MgCl2, 1 mM EGTA, 2 mM DTT, and 0.01% v/v Tween-20) and were briefly incubated with Axl kinase (Invitrogen Corporation, Carlsbad, Calif.). The Axl kinase used was recombinant human Axl kinase (catalytic domain, amino acids 473-894) with a histidine tag. The reaction was initiated by the addition of ATP and fluorescein-labeled poly-GT substrate (poly Glu:Tyr, 4:1 polymer; Invitrogen). Concentration of the various components in the assay (10 μl reaction volume) were: 1% DMSO, 93 ng/ml Axl kinase, 20 μM ATP, and 200 nM fluorescein poly-GT substrate. Following addition of ATP and fluorescein poly-GT substrate, incubation was for 60 min at room temperature, the enzyme reaction is stopped by addition of 10 μl terbium-labeled anti-phosphotyrosine PY20 antibody in EDTA-containing buffer. Final concentration of EDTA and antibody after addition to the reaction is 10 mM and 2 nM, respectively. The terbium conjugated antibody generates a time-resolved FRET signal with the fluorescein molecule (bound to the poly-GT substrate) when the substrate is phosphorylated. After one hour incubation at room temperature, fluorescence was measured with excitation of 320 nm and dual emission of 495 and 520 urn on an EnVision microplate reader (PerkinElmer). Signal is expressed in terms of a TR-FRET ratio (fluorescence intensity at 520 nm to 495 nm).
(§1) IC50 values are determined using GraphPad Prism 5 software. The data were entered as an X-Y plot into the software as percent inhibition for each concentration of the drug. The concentration values of the drug were log transformed and the nonlinear regression was carried out using the “sigmoidal dose-response (variable slope)” option within the GraphPad software to model the data and calculate IC50 values.

Another assay relates to PSN-1. Nature of the assay: Cell viability assay (ATP-Lite), PSN-1. The format is cell-based. The settings on record: Homo sapiens, PSN1; PSN-1, 96 hours. The method, then: (§2) All cell lines were cultured in media as recommended by American Type Culture Collection (“ATCC”; supplemented with 10% fetal bovine serum (“FBS”) and 1% penicillin/streptomycin (100 IU/ml pencillin and 100 μg/ml streptomycin) at 37° C. and 5% CO2. The cell lines used in these studies included those indicated in Table II below.
(§3) For cell proliferation assays, 45 μl containing 1000 cells per well were seeded into solid white 384-well plates in appropriate cell growth media containing 10% FBS and incubated overnight at 37° C. and 5% CO2. The following day, test compounds were diluted in serum free growth media to 10× desired concentrations and 5 μl was added to each well. Combined compound and cells were incubated for 96 hours. Following incubation, 40 μl of ATP-Lite solution (PerkinElmer, Inc., Waltham, Massachussetts) was added to each well, incubated for an additional 10 minutes at room temperature and luminescence was measured on an EnVision microplate reader. Percent cell viability for test compounds was calculated by comparing treated wells to appropriate controls (e.g. vehicle treated) included on each plate.
as §1
The ability of compounds to inhibit the viability of cultured cells was determined using the cell viability assay described above. […] IC50 values were determined as described above. If IC50 value is indicated as “n.d.”, it means that the compound was […] in the indicated cell line. The compound number corresponds to the numbering used in Table I.

The test system of another assay is PANC-1. Nature of the assay: Cell viability assay (ATP-Lite), PANC-1. The format is cell-based. The settings on record: Homo sapiens; PANC-1, 96 hours. The method, then:
as §2, §3, §1
(§4) The ability of compounds to inhibit the viability of cultured cells was determined using the cell viability assay described above. Activity data for representative compounds is shown below in Table IV for the compounds was tested in the indicated cell lines (PL-45, PANC-1, PSN-1, HepG2, and […]). IC50 values were determined as described above. If IC50 value is indicated as “n.d.”, it means that the compound was […] in the indicated cell line. The compound number corresponds to the numbering used in Table I.

The next assay deals with PL45. Nature of the assay: Cell viability assay (ATP-Lite), PL45. It is filed as cell-based. As to conditions: Homo sapiens; PL45, 96 hours. How it is done:
as §2, §3, §1, §4

A further assay concerns HepG2. Nature of the assay: Cell viability assay (ATP-Lite), HepG2. As to conditions: Homo sapiens; HepG2, 96 hours. The format is cell-based. The method, then: as §2, §3, §1, §4
The test system of a further assay is A549. Nature of the assay: Cell viability assay (ATP-Lite), A549. The format is cell-based. The settings on record: Homo sapiens; A549, 96 hours. How it is done:
as §2, §3, §1, §4

The structures appear in SMILES notation.

As to `Cc1cnc(Nc2ccc(CN3CCN(C)CC3)cc2)nc1-c1ccc(C(C)(C)C#N)cc1` [Compound 11], the IC50 in assay [1] turned out to be 0.289 µM; in the assay with PSN-1, 2.55 µM; with PANC-1 it was 5.78 µM; with PL45 it was 8.21 µM.
Take `CN1CCN(Cc2ccc(Nc3ncc(Cl)c(Nc4ccc(F)cc4S(=O)(=O)N4CCCC4)n3)cc2)CC1` [Compound 3]: the IC50 was 0.043 µM in the assay on HepG2; 0.004 µM with A549; 0.037 µM in assay [1]; 0.009 µM in the assay with PSN-1; 0.093 µM in the assay on PANC-1; 0.017 µM in the assay with PL45.
For `CN1CCN(Cc2ccc(Nc3ncc(Cl)c(Nc4ccccc4C(=O)N4CCCC4)n3)cc2)CC1` [Compound 6], the IC50 in the assay on HepG2 is 0.194 µM; in the assay with A549, 0.007 µM; in assay [1] it was 0.061 µM; in the assay with PSN-1, 0.021 µM; in the assay on PANC-1, 0.096 µM; in the assay with PL45, 0.014 µM.
Regarding `CN1CCN(Cc2ccc(Nc3ncc(Cl)c(-c4ccc(F)cc4S(=O)(=O)N4CCCC4)n3)cc2)CC1` [Compound 9], the IC50 came out at 0.527 µM with HepG2; 0.077 µM in the assay on A549; 0.119 µM in assay [1]; 0.192 µM in the assay with PSN-1; 0.481 µM in the assay on PANC-1; 0.426 µM in the assay with PL45.
As for `CN1CCN(Cc2ccc(Nc3ncc(Cl)c(Nc4ccccc4S(=O)(=O)N(C)C)n3)cc2)CC1` [Compound 4], the IC50 in the assay with HepG2 amounted to 0.006 µM; in the assay on A549, 0.008 µM; in the assay with PANC-1, 0.038 µM; in the assay on PL45 it was 0.048 µM.
On to `CN1CCN(Cc2ccc(Nc3ncc(Cl)c(Nc4ccccc4S(=O)(=O)N4CCCC4)n3)cc2)CC1` [Compound 1], for which the IC50 came out at 0.121 µM with HepG2; 0.002 µM with A549; 0.02 µM in assay [1]; 0.002 µM in the assay with PSN-1; 0.034 µM in the assay with PANC-1; 0.047 µM in the assay with PL45.
With `Cc1cnc(Nc2ccc(CN3CCN(C)CC3)cc2)nc1-c1ccc(F)c(Cl)c1` [Compound 14], the half-maximal inhibitory concentration (IC50) amounted to 0.73 µM in assay [1], 4.27 µM with PSN-1, 7.75 µM in the assay on PANC-1 and 14.4 µM in the assay on PL45.
With `CN1CCC(N(C)c2ccc(Nc3ncc(Cl)c(Nc4ccccc4S(=O)(=O)N(C)C)n3)cc2)CC1` [Compound 5], the IC50 was 0.056 µM in assay [1], 0.08 µM with PANC-1 and 0.37 µM with PL45.
`Cc1cnc(Nc2ccc(CN3CCN(C)CC3)cc2)nc1-c1cccc(Cl)c1` [Compound 13]: the half-maximal inhibitory concentration (IC50) in assay [1] is 0.445 µM; in the assay with PSN-1 it was 2.66 µM; in the assay on PANC-1, 7.6 µM; in the assay with PL45 it was 4.82 µM.
Turning to `CN1CCN(Cc2ccc(Nc3ncc(Cl)c(Nc4ccccc4C(=O)N(C)C)n3)cc2)CC1` [Compound 7], the IC50 is 0.057 µM with HepG2; 0.019 µM in the assay with A549; 0.088 µM in assay [1]; 0.07 µM in the assay on PSN-1; 0.142 µM in the assay with PANC-1; 0.095 µM in the assay on PL45.
On to `CN1CCN(Cc2ccc(Nc3ncc(Cl)c(Nc4ccccc4C(=O)NC4CC4)n3)cc2)CC1` [Compound 2], for which the IC50 in the assay with HepG2 came to 0.303 µM; in the assay on A549, 0.003 µM; in assay [1], 0.032 µM; in the assay on PSN-1, 0.064 µM; in the assay on PANC-1, 0.303 µM; in the assay on PL45 it was 0.003 µM.
With `Cc1cnc(Nc2ccc(N(C)C3CCN(C)CC3)cc2)nc1-c1ccc(F)c(Cl)c1` [Compound 12], the IC50 in assay [1] came out at 0.416 µM; in the assay with PSN-1 it was 6.71 µM; in the assay with PANC-1, 10.9 µM; in the assay with PL45, 13.7 µM.

In general, IC50 refers to the point on the concentration scale where inhibition reaches its midpoint.

Source of the values: patent US8901120B2, “Substituted N-phenylpyrimidin-2-amine analogs as inhibitors of the Axl kinase” (University of Utah Research Foundation, priority 2011, dated 2014).
